In patent US8158792B2, “Spiropiperidines for use as tryptase inhibitors” (Janssen Pharmaceutica N.V., priority 2007, dated 2012) one finds IC50 data, which are given here for 36 molecules.

The target of the experiment is human lung tryptase. As to the kind of experiment: β-Tryptase In-Vitro Enzyme Assay. In kind it is biochemical. The settings on record: human lung tryptase 1 nM, substrate H-D-HHT-Ala-Arg-pNa 500 μM, pH 7.4, room temperature. The method, then: The β-tryptase assay was conducted with human lung tryptase (Cortex Biochem #CP3033) in an aqueous buffer (10 mM Tris, 10 mM Hepes, 150 mM NaCl, 0.1% PEG 8000, pH 7.4) using the chromogenic substrate H-D-HHT-Ala-Arg-pNa. […] Percent inhibition was calculated by comparing the initial reaction velocity of samples without inhibitor to those with inhibitor. The initial reaction velocities were analyzed using Microsoft Excel.

What is called IC50 is the midpoint of a concentration-inhibition curve. On to `NCc1ccc2c(c1)C1(CCN(C(=O)[C@@H]3C[C@H]3c3ccccc3)CC1)CO2` (relative stereo) [Cpd 141, 1-(trans-2-phenyl-cyclopropyl)carbonyl-5′-aminomethyl-spiro[piperidine-4,3′-(2H)-benzo[b]furan]], for which the IC50 was 0.48 µM.
Turning to `NCc1ccc2c(c1)C1(CCN(C(=O)c3ccc(Cl)c(Cl)c3)CC1)CO2` [Cpd 1, 1-(3,4-dichlorophenyl)carbonyl-5′-aminomethyl-spiro[piperidine-4,3′-(2H)-benzo[b]furan]], the IC50 came to 0.031 µM.
Molecule `O=C(NCc1ccc2c(c1)C1(CCNCC1)CO2)c1ccc(Cl)c(Cl)c1` [Cpd 2, 5′-(3,4-dichlorophenylcarbonylaminomethyl)-spiro[piperidine-4,3′-(2H)-benzo[b]furan]] had an IC50 of 1.4 µM.
Take `NCc1ccc2c(c1)C1(CCN(C(=O)c3cccc(C(=O)c4ccccc4)c3)CC1)CO2` [Cpd 4, 1-(3-benzoyl-phenyl)carbonyl-5′-aminomethyl-spiro[piperidine-4,3′-(2H)-benzo[b]furan]]: the midpoint of inhibition, the IC50, lay at 0.75 µM.
Under `NCc1ccc2c(c1)C1(CCN(C(=O)c3cccc(NC(N)=S)c3)CC1)CO2` [Cpd 5, 1-(3-aminothiocarbonylamino-phenyl)carbonyl-5′-aminomethyl-spiro[piperidine-4,3′-(2H)-benzo[b]furan]] stands 0.45 µM; under `NCc1ccc2c(c1)C1(CCN(C(=O)c3ccc(C(=O)c4ccccc4)cc3)CC1)CO2` [Cpd 6, 1-(4-benzoyl-phenyl)carbonyl-5′-aminomethyl-spiro[piperidine-4,3′-(2H)-benzo[b]furan]], 5.8 µM; under `NCc1ccc2c(c1)C1(CCN(C(=O)c3ccc4c(c3)S(=O)(=O)c3ccccc3C4=O)CC1)CO2` [Cpd 7, 1-(9-oxo-10,10-dioxo-thioxanthen-3-yl)carbonyl-5′-aminomethyl-spiro[piperidine-4,3′-(2H)-benzo[b]furan]], 0.78 µM.
The figure for `NCc1ccc2c(c1)C1(CCN(C(=O)c3ccc4c(c3)C(=O)c3ccccc3-4)CC1)CO2` [Cpd 8, 1-(9-oxo-fluoren-2-yl)carbonyl-5′-aminomethyl-spiro[piperidine-4,3′-(2H)-benzo[b]furan]] is 3.4 µM; for `NCc1ccc2c(c1)C1(CCN(C(=O)c3ccc(NC(=O)Cn4cnc5ccccc54)cc3)CC1)CO2` [Cpd 9, 1-(4-benzoimidazol-1-ylmethylcarbonylamino-phenyl)carbonyl-5′-aminomethyl-spiro[piperidine-4,3′-(2H)-benzo[b]furan]] it is 3.3 µM; for `NCc1ccc2c(c1)C1(CCN(C(=O)c3ccc(Cn4cnc5ccccc54)cc3)CC1)CO2` [Cpd 10, 1-(4-benzoimidazol-1-ylmethyl-phenyl)carbonyl-5′-aminomethyl-spiro[piperidine-4,3′-(2H)-benzo[b]furan]] it is 3 µM.
Molecule `NCc1ccc2c(c1)C1(CCN(C(=O)c3ccc(S(N)(=O)=O)cc3)CC1)CO2` [Cpd 11, 1-(4-aminosulfonyl-phenyl)carbonyl-5′-aminomethyl-spiro[piperidine-4,3′-(2H)-benzo[b]furan]] showed an IC50 of 4.7 µM.
The figure for `NCc1ccc2c(c1)C1(CCN(C(=O)c3ccc(-c4ccc(Cl)cc4)o3)CC1)CO2` [Cpd 12, 1-[5-(4-chloro-phenyl)-furan-2-yl]carbonyl-5′-aminomethyl-spiro[piperidine-4,3′-(2H)-benzo[b]furan]] is 0.066 µM; for `NCc1ccc2c(c1)C1(CCN(C(=O)c3cc4cc(Cl)ccc4o3)CC1)CO2` [Cpd 13, 1-(5-chloro-benzo[b]-furan-2-yl)carbonyl-5′-aminomethyl-spiro[piperidine-4,3′-(2H)-benzo[b]furan]] it is 1.1 µM.
Under `Cc1nc2cc(C(=O)N3CCC4(CC3)COc3ccc(CN)cc34)ccc2n1-c1ccccc1` [Cpd 14, 1-(1-phenyl-2-methyl-benzoimidazol-5-yl)carbonyl-5′-aminomethyl-spiro[piperidine-4,3′-(2H)-benzo[b]furan]] stands 3.7 µM; under `NCc1ccc2c(c1)C1(CCN(C(=O)c3ccc(-c4cccc(C(F)(F)F)c4)cc3)CC1)CO2` [Cpd 15, 1-[4-(3-trifluoromethyl-phenyl)-phenyl]carbonyl-5′-aminomethyl-spiro[piperidine-4,3′-(2H)-benzo[b]furan]], 5.5 µM.
Under `NCc1ccc2c(c1)C1(CCN(C(=O)c3ccc4ncsc4c3)CC1)CO2` [Cpd 16, 1-benzothiazol-6-ylcarbonyl-5′-aminomethyl-spiro[piperidine-4,3′-(2H)-benzo[b]furan]] stands 0.43 µM; under `NCc1ccc2c(c1)C1(CCN(C(=O)c3ccc(-n4cc(-c5nc6ccccc6o5)cn4)cc3)CC1)CO2` [Cpd 17, 1-{4-[(4-benzoxazol-2-yl)-pyrazol-1-yl]-phenyl}carbonyl-5′-aminomethyl-spiro[piperidine-4,3′-(2H)-benzo[b]furan]], 0.29 µM.
With `NCc1ccc2c(c1)C1(CCN(C(=O)c3cccc(NS(=O)(=O)c4ccccc4)c3)CC1)CO2` [Cpd 18, 1-(3-phenylsulfonylamino-phenyl)carbonyl-5′-aminomethyl-spiro[piperidine-4,3′-(2H)-benzo[b]furan]], inhibition was half-maximal at 3.3 µM (IC50). Compared with the last molecule, the IC50 is about 11-fold higher.
The figure for `NCc1ccc2c(c1)C1(CCN(C(=O)c3cccc(NC(=O)Cc4cccs4)c3)CC1)CO2` [Cpd 19, 1-(3-thien-2-ylmethylcarbonylamino-phenyl)carbonyl-5′-aminomethyl-spiro[piperidine-4,3′-(2H)-benzo[b]furan]] is 0.56 µM.
Under `NCc1ccc2c(c1)C1(CCN(C(=O)c3cccc(-c4ccc5c(c4)OCO5)c3)CC1)CO2` [Cpd 20, 1-(3-benzodioxol-5-yl-phenyl)carbonyl-5′-aminomethyl-spiro[piperidine-4,3′-(2H)-benzo[b]furan]] stands 0.14 µM; under `NCc1ccc2c(c1)C1(CCN(C(=O)c3cccc(Sc4ncc(Cl)cn4)c3)CC1)CO2` [Cpd 21, 1-[3-(5-chloro-pyrimidin-2-yl)thiophenyl]carbonyl-5′-aminomethyl-spiro[piperidine-4,3′-(2H)-benzo[b]furan]], 0.51 µM; under `NCc1ccc2c(c1)C1(CCN(C(=O)c3ccc(C(F)(F)F)o3)CC1)CO2` [Cpd 22, 1-(5-trifluoromethyl-furan-2-yl)carbonyl-5′-aminomethyl-spiro[piperidine-4,3′-(2H)-benzo[b]furan]], 2.1 µM.
Under `NCc1ccc2c(c1)C1(CCN(C(=O)c3ccc(Sc4ccccc4)o3)CC1)CO2` [Cpd 23, 1-[(5-phenylthio)-furan-2-yl]carbonyl-5′-aminomethyl-spiro[piperidine-4,3′-(2H)-benzo[b]furan]] stands 0.09 µM; under `Cc1ccc(C(=O)N2CCC3(CC2)COc2ccc(CN)cc23)cc1C` [Cpd 24, 1-(3,4-dimethyl-phenyl)carbonyl-5′-aminomethyl-spiro[piperidine-4,3′-(2H)-benzo[b]furan]], 0.15 µM.
With `Cc1cc(C(=O)N2CCC3(CC2)COc2ccc(CN)cc23)ccc1Cl` [Cpd 25, 1-(3-methyl-4-chloro-phenyl)carbonyl-5′-aminomethyl-spiro[piperidine-4,3′-(2H)-benzo[b]furan]], the midpoint of inhibition, the IC50, lay at 0.14 µM.
Under `NCc1ccc2c(c1)C1(CCN(C(=O)c3ccc(F)c(F)c3)CC1)CO2` [Cpd 26, 1-(3,4-difluoro-phenyl)carbonyl-5′-aminomethyl-spiro[piperidine-4,3′-(2H)-benzo[b]furan]] stands 0.23 µM; under `NCc1ccc2c(c1)C1(CCN(C(=O)c3ccc(F)c(Cl)c3)CC1)CO2` [Cpd 27, 1-(3-chloro-4-fluoro-phenyl)carbonyl-5′-aminomethyl-spiro[piperidine-4,3′-(2H)-benzo[b]furan]], 0.034 µM; under `COc1ccc(C(=O)N2CCC3(CC2)COc2ccc(CN)cc23)cc1Cl` [Cpd 28, 1-(3-chloro-4-methoxy-phenyl)carbonyl-5′-aminomethyl-spiro[piperidine-4,3′-(2H)-benzo[b]furan]], 0.12 µM.
On to `NCc1ccc2c(c1)C1(CCN(C(=O)c3cccc(Br)c3)CC1)CO2` [Cpd 29, 1-(3-bromo-phenyl)carbonyl-5′-aminomethyl-spiro[piperidine-4,3′-(2H)-benzo[b]furan]], for which the IC50 turned out to be 0.13 µM.
Molecule `Cc1cc(C(=O)N2CCC3(CC2)COc2ccc(CN)cc23)ccc1Br` [Cpd 30, 1-(3-methyl-4-bromo-phenyl)carbonyl-5′-aminomethyl-spiro[piperidine-4,3′-(2H)-benzo[b]furan]] had an IC50 of 0.14 µM.
Molecule `NCc1ccc2c(c1)C1(CCN(C(=O)c3ccc(F)c(Br)c3)CC1)CO2` [Cpd 31, 1-(3-bromo-4-fluoro-phenyl)carbonyl-5′-aminomethyl-spiro[piperidine-4,3′-(2H)-benzo[b]furan]] returned a 50% inhibitory concentration (IC50) of 0.055 µM.
With `COc1ccc(C(=O)N2CCC3(CC2)COc2ccc(CN)cc23)cc1Br` [Cpd 32, 1-(3-bromo-4-methoxy-phenyl)carbonyl-5′-aminomethyl-spiro[piperidine-4,3′-(2H)-benzo[b]furan]], the IC50 stood at 0.041 µM.
In the case of `NCc1ccc2c(c1)C1(CCN(C(=O)c3ccc(Br)c([N+](=O)[O-])c3)CC1)CO2` [Cpd 33, 1-(3-nitro-4-bromo-phenyl)carbonyl-5′-aminomethyl-spiro[piperidine-4,3′-(2H)-benzo[b]furan]], the IC50 was 0.43 µM.
The figure for `NCc1ccc2c(c1)C1(CCN(C(=O)c3ccc(Cl)c(I)c3)CC1)CO2` [Cpd 34, 1-(3-iodo-4-chloro-phenyl)carbonyl-5′-aminomethyl-spiro[piperidine-4,3′-(2H)-benzo[b]furan]] is 0.02 µM; for `NCc1ccc2c(c1)C1(CCN(C(=O)c3ccc(C#Cc4ccccc4F)o3)CC1)CO2` [Cpd 35, 1-[5-(2-fluoro-phenylethynyl)-furan-2-yl]carbonyl-5′-aminomethyl-spiro[piperidine-4,3′-(2H)-benzo[b]furan]] it is 0.0043 µM; for `NCc1ccc2c(c1)C1(CCN(C(=O)c3ccccc3)CC1)CO2` [Cpd 36, 1-phenylcarbonyl-5′-aminomethyl-spiro[piperidine-4,3′-(2H)-benzo[b]furan]] it is 0.82 µM.
